In patent EP1144368B1, “ACETYLENIC ALPHA-AMINO ACID-BASED SULFONAMIDE HYDROXAMIC ACID TACE INHIBITORS” (priority 1999, dated 2000):

system: THP-1 cells; assay: THP-1 Soluble Protein Assay (LPS-stimulated; ELISA of TNF-a, TNF-R p75/80, TNF-R p55/60, IL-8); format: cell-based, human; conditions: Homo sapiens, THP-1, read-out: THP % inhibition @ 3 µM, 3 µM

Compared with `CC#CCOc1ccc(S(=O)(=O)NC(C(=O)NO)c2ccc(OCCN3CCN(C(=O)OC(C)(C)C)CC3)cc2)cc1` (centres unmarked) [Example 202, tert-Butyl 4-(2-{4-[1-({[4-(2-butynyloxy)phenyl]sulfonyl}amino)-2-(hydroxyamino)-2-oxoethyl)phenoxy]ethyl)-1-piperazinecarboxylate], `CC#CCOc1ccc(S(=O)(=O)NC(C(=O)NO)c2ccc(OCCN3CCCC3)cc2)cc1` (centres unmarked) [Example 205, 2-({[4-(2-Butynyloxy)phenyl]sulfonyl}amino)-N-hydroxy-2-{4-[2-(1-pyrrolidinyl)ethoxy]phenyl}acetamide] is higher in inhibition at 3 µM: 45% for the first, 66% for the second.

Going from `CC#CCOc1ccc(S(=O)(=O)NC(C(=O)NO)c2ccc(OCCN(C)C(=O)OC(C)(C)C)cc2)cc1` (centres unmarked) [Example 203, tert-Butyl 4-(2-{4-[1-({[4-{2-butynyloxy)phenyl]sulfonyl}amino)-2-(hydroxyamino)-2-oxoethyl)phenoxy]ethyl)-(methyl)carbamate] to `CC#CCOc1ccc(S(=O)(=O)NC(C(=O)NO)c2ccc(OCCN(C)C)cc2)cc1` (centres unmarked) [Example 207, 2-({[4-(2-Butynyloxy)phenyl]sulfonyl}amino){4-[2-(dimethylamino)ethoxy]phenyl}-N-hydroxyacetamide], the inhibition at 3 µM falls from 73% to 51%.

Compared with `CC#CCOc1ccc(S(=O)(=O)NC(C(=O)NO)c2ccc(OCCN3CCOCC3)cc2)cc1` (centres unmarked) [Example 206, 2-({[4-(2-Butynyloxy)phenyl]sulfonyl}amino)-N-hydroxy-2-{4-[2-(4-morpholinyl)ethoxy]phenyl}acetamide], `CC#CCOc1ccc(S(=O)(=O)NC(C(=O)NO)c2ccc(OCCc3scnc3C)cc2)cc1` (centres unmarked) [Example 208, 2-({[4-(2-Butynyloxy)phenyl]sulfonyl}amino)-N-hydroxy-2-{4-[2-(4-methyl-1,3-thiazol-5-yl)ethoxy]phenyl}acetamide] is higher in inhibition at 3 µM: 70% for the first, 74% for the second.

First: CC#CCOc1ccc(S(=O)(=O)NC(C(=O)NO)c2ccc(OCCOCCOCCOC)cc2)cc1 (centres unmarked) [Example 209, 2-({[4-(2-Butynyloxy)phenyl]sulfonyl}amino)-N-hydroxy-2-(4-{2-[2-(2-methoxyethoxy)ethoxy]ethoxy}phenyl)acetamide]
Second: CC#CCOc1ccc(S(=O)(=O)N(C)C(C(=O)NO)c2ccc(Cl)cc2)cc1 (centres unmarked) [Example 212, 2-[{[4-(2-Butynyloxy)phenyl]sulfonyl}(methyl)amino]-2-(4-chlorophenyl)-N-hydroxyacetamide]
The inhibition at 3 µM of the first is lower: 75% for the first, 86% for the second.

Going from `CC#CCOc1ccc(S(=O)(=O)N(C)C(CCCSc2ccc(Cl)cc2)C(=O)NO)cc1` (centres unmarked) [Example 213, 2-[{[4-(2-Butynyloxy)phenyl]sulfonyl}(methyl)amino]-5-[(4-chlorophenyl)sulfanyl]-N-hydroxypentanamide] to `CC#CCOc1ccc(S(=O)(=O)N2CCN(Cc3ccc(Br)cc3)CC2C(=O)NO)cc1` (centres unmarked) [Example 233, 4-(4-Bromo-benzyl)-1-(4-but-2-ynyloxy-benzenesulfonyl)-piperazine-2-carboxylic acid hydroxyamide], the inhibition at 3 µM falls from 87% to 33%.

Compared with `CC#CCOc1ccc(S(=O)(=O)N2CCNCC2C(=O)NO)cc1` (centres unmarked) [Example 214, 1-(4-But-2-ynyloxy-benzenesulfonyl)-piperazine-2-carboxylic acidhydroxyamide], `CC#CCOc1ccc(S(=O)(=O)N2CCSCC2C(=O)NO)cc1` (centres unmarked) [Example 239] is higher in inhibition at 3 µM: 71% for the first, 84% for the second.

First: CC#CCOc1ccc(S(=O)(=O)N2CCN(C(=O)N3CCOCC3)CC2C(=O)NO)cc1 (centres unmarked) [Example 215, 1-(4-But-2-ynyloxy-benzenesulfonyl)-4-(morpholine-4-carbonyl)-piperazine-2-carboxylic acid hydroxyamide]
Second: CC#CCOc1ccc(S(=O)(=O)N2CCN(C(=O)N3CCCC3)CC2C(=O)NO)cc1 (centres unmarked) [Example 217, 1-(4-But-2-ynyloxy-benzenesulfonyl)-4-(pyrrolidine-1-carbonyl)-piperazine-2-carboxylic acid hydroxyamide]
The inhibition at 3 µM of the first is lower: 51% for the first, 73% for the second.

Compared with `CC#CCOc1ccc(S(=O)(=O)N2CCN(C(=O)N(CC)CC)CC2C(=O)NO)cc1` (centres unmarked) [Example 216, 4-(4-But-2-ynyloxy-benzenesulfonyl)-piperazine-1,3-dicarboxylic acid 1-diethylamide 3-hydroxyamide], `CC#CCOc1ccc(S(=O)(=O)N2CCN(C(=O)CC)CC2C(=O)NO)cc1` (centres unmarked) [Example 225, 1-(4-But-2-ynyloxy-benzenesulfonyl)-4-propionyl-piperazine-2-carboxylic acid hydroxyamide] is higher in inhibition at 3 µM: 59% for the first, 76% for the second.

Going from `CC#CCOc1ccc(S(=O)(=O)N2CCN(C(=O)N(C(C)C)C(C)C)CC2C(=O)NO)cc1` (centres unmarked) [Example 218, 4-(4-But-2-ynyloxy-benzenesulfonyl)-piperazine-1,3-dicarboxylic acid 1-diisopropylamide 3-hydroxyamide] to `CC#CCOc1ccc(S(=O)(=O)N2CCN(C(C)=O)CC2C(=O)NO)cc1` (centres unmarked) [Example 224, 4-Acetyl-1-(4-but-2-ynyloxy-benzenesulfonyl)-piperazine-2-carboxylic acid hydroxyamide], the inhibition at 3 µM rises from 56% to 81%.

First: CC#CCOc1ccc(S(=O)(=O)N2CCN(C(=O)OCc3ccccc3)CC2C(=O)NO)cc1 (centres unmarked) [Example 219, Benzyl 4-{[4-(2-butynyloxy)phenyl]sulfonyl}-3-[(hydroxyamino)carbonyl]-1-piperazinecarboxylate]
Second: CC#CCOc1ccc(S(=O)(=O)N2CCN(C(=O)N(C)c3ccccc3)CC2C(=O)NO)cc1 (centres unmarked) [Example 220, 4-(4-But-2-ynyloxy-benzenesulfonyl)-piperazine-1,3-dicarboxylic acid 3-hydroxyamide 1-(methyl-phenyl-amide)]
The inhibition at 3 µM of the first is higher: 87% for the first, 60% for the second.

Compared with `CC#CCOc1ccc(S(=O)(=O)N2CCN(C(=O)Nc3ccc(OC)cc3)CC2C(=O)NO)cc1` (centres unmarked) [Example 221, 4-{[4-(2-Butynyloxy)phenyl]sulfonyl}-N-3-hydroxy-N-1-(4-methoxyphenyl)-1,3-piperazinedicarboxamide], `CC#CCOc1ccc(S(=O)(=O)N2CCN(C(=O)Nc3ccc(F)cc3)CC2C(=O)NO)cc1` (centres unmarked) [Example 222, 4-{[4-(2-Butynyloxy)phenyl]sulfonyl}-N-1-(4-fluorophenyl)-N-3-hydroxy-1,3-piperazinedicarboxamide] is higher in inhibition at 3 µM: 58% for the first, 61% for the second.

Compared with `CC#CCOc1ccc(S(=O)(=O)N2CCN(C(=O)Nc3cc(Cl)cc(Cl)c3)CC2C(=O)NO)cc1` (centres unmarked) [Example 223, 4-{[4-(2-Butynyloxy)phenyl]sulfonyl}-N-1-(3,5-dichlorophenyl)-N-3-hydroxy-1,3-piperazinedicarboxamide], `CC#CCOc1ccc(S(=O)(=O)N2CCN(C(=O)OC)CC2C(=O)NO)cc1` (centres unmarked) [Example 228, 4-(4-But-2-ynyloxy-benzenesulfonyl)-3-hydroxycarbamoyl-piperazine-1-carboxylic acid methyl ester] is higher in inhibition at 3 µM: 42% for the first, 81% for the second.

Compared with `CC#CCOc1ccc(S(=O)(=O)N2CCN(C(=O)CNC(=O)OC(C)(C)C)CC2C(=O)NO)cc1` (centres unmarked) [Example 229, {2-[4-(4-But-2-ynyloxy-bemenesulfonyl)-3-hydroxycarbamoyl-piperazin-1-yl]-2-oxo-ethyl}-carbamic acid tert-butyl ester], `CC#CCOc1ccc(S(=O)(=O)N2CCN(C(=O)CN)CC2C(=O)NO)cc1` (centres unmarked) [Example 230, 4-Aminoacetyl-1-(4-but-2-ynyloxy-benzenesulfonyl)-piperazine-2-carboxylic acid hydroxyamide] is lower in inhibition at 3 µM: 85% for the first, 27% for the second.

Going from `CC#CCOc1ccc(S(=O)(=O)N2CCN(C(=O)C3(C)COC(C)(C)OC3)CC2C(=O)NO)cc1` (centres unmarked) [Example 231, 1-{[4-(2-Butynyloxy)phenyl]sulfonyl}-N-hydroxy-4-[(2,2,5-trimethyl-1,3-dioxan-5-yl)carbonyl)-2-piperazinecarboxamide] to `CC#CCOc1ccc(S(=O)(=O)N2CCN(C(=O)C(C)(CO)CO)CC2C(=O)NO)cc1` (centres unmarked) [Example 232, 1-{[4-(2-Butynyloxy)phenyl]sulfonyl}-N-hydroxy-4-[3-hydroxy-2-(hydroxymethyl)-2-methylpropanoyl]-2-piperazinecarboxamide], the inhibition at 3 µM falls from 73% to 72%.

Going from `CC#CCOc1ccc(S(=O)(=O)N2CCSC3(CCN(Cc4ccccc4)CC3)C2C(=O)NO)cc1` (centres unmarked) [Example 241, 9-Benzyl-4-{[4-(2-butynyloxy)phenyl]sulfonyl}-N-hydroxy-1-thia-4,9-diazaspiro[5.5]undecane-5-carboxamide] to `CC#CCOc1ccc(S(=O)(=O)N2CCSC3(CCN(C)CC3)C2C(=O)NO)cc1` (centres unmarked) [Example 242, 9-methyl-4-{[4-(2-butynyloxy)phenyl]sulfonyl}-N-hydroxy-1-thia-4,9-diazaspiro[5.5]undecane-5-carboxamide], the inhibition at 3 µM falls from 94% to 73%.

First: CC1(C)SCCN(S(=O)(=O)c2ccc(OCC#CCCOC3CCCCO3)cc2)C1C(=O)NO (centres unmarked) [Example 243, N-Hydroxy-2,2-dimethyl-4-[(4-{[5-(tetrahydro-2H-pyran-2-yloxy)-2-pentynyl]oxy}phenyl)sulfonyl]-3-thiomorpholine carboxamide]
Second: CC1(C)SCCN(S(=O)(=O)c2ccc(OCC#CCCO)cc2)C1C(=O)NO (centres unmarked) [Example 244, N-Hydroxy-4-({4-[(5-hydroxy-2-pentynyl)oxy]phenyl}sulfonyl)-2,2-dimethyl-3-thiomorpholine carboxamide]
The inhibition at 3 µM of the first is lower: 52% for the first, 57% for the second.

Compared with `CC(C)(C)OC(=O)NCCC#CCOc1ccc(S(=O)(=O)N2CCSC(C)(C)C2C(=O)NO)cc1` (centres unmarked) [Example 245, tert-Butyl 5-[4-({3-[(hydroxyamino)carbonyl]-2,2-dimethyl-4-thiomorpholinyl}sulfonyl)phenoxy]-3-pentynylcarbamate], `CC1(C)SCCN(S(=O)(=O)c2ccc(OCC#CCCN)cc2)C1C(=O)NO` (centres unmarked) [Example 246, 4-({4-[(5-Amino-2-pentynyl)oxy]phenyl}sulfonyl)-N-hydroxy-2,2-dimethyl-3-thiomorpholine carboxamide] is lower in inhibition at 3 µM: 37% for the first, 4% for the second.

With `CC1(C)SCCN(S(=O)(=O)c2ccc(OCC#CCOCc3ccccc3)cc2)C1C(=O)NO` (centres unmarked) [Example 247, 4-[(4-{[4-(Benzyloxy)-2-butynyl]oxy}phenyl)sulfonyl]-N-hydroxy-2,2-dimethyl-3-thiomorpholine carboxamide] the inhibition at 3 µM was 57%.
